Source: ChEMBL document CHEMBL1201862, “PubChem BioAssay data set” (2004)
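Following 48 hours of exposure in 96-well plates, responses at five concentrations were used to interpolate endpoints linearly. GI50 = concentration required for 50% inhibition of growth.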 Activity calls are given as the source filed them. Rule as the data show it: active = GI50 up to about 1.1 µM and inactive = higher.

Legend:
Experiment in all cases: NCI-60 cell line screen, 48 h
786-0 = test system: 786-0
A498 = test system: A498
CCRF-CEM = test system: CCRF-CEM
EKVX = test system: EKVX
HCT-15 = test system: HCT-15
HL-60 = test system: HL-60
IGROV-1 = test system: IGROV-1
LOX IMVI = test system: LOX IMVI
M14 = test system: M14
MDA-MB-435 = test system: MDA-MB-435
NCI-H226 = test system: NCI-H226
NCI/ADR-RES = test system: NCI/ADR-RES
OVCAR-4 = test system: OVCAR-4
PC-3 = test system: PC-3
RPMI-8226 = test system: RPMI-8226
SF-268 = test system: SF-268
SF-539 = test system: SF-539
SK-MEL-2 = test system: SK-MEL-2
SW-620 = test system: SW-620
UACC-257 = test system: UACC-257

Row | SMILES | GI50 (786-0) | GI50 (A498) | GI50 (CCRF-CEM) | GI50 (EKVX) | GI50 (HCT-15) [µM] | GI50 (HL-60) | GI50 (IGROV-1) | GI50 (LOX IMVI) | GI50 (M14) | GI50 (MDA-MB-435) | GI50 (NCI-H226) | GI50 (NCI/ADR-RES) | GI50 (OVCAR-4) | GI50 (PC-3) | GI50 (RPMI-8226) | GI50 (SF-268) | GI50 (SF-539) | GI50 (SK-MEL-2) | GI50 (SW-620) | GI50 (UACC-257)
1 | CCOC(=O)c1cc2c3c(cc(OC)c2[nH]1)N(C(=O)OCC)CC3 | > 100 µM (inactive) | > 100 µM (inactive) | > 100 µM (inactive) | 42.5 µM (inactive) | > 100 | > 100 µM (inactive) | > 100 µM (inactive) | > 100 µM (inactive) | > 100 µM (inactive) | > 100 µM (inactive) | > 100 µM (inactive) | > 100 µM (inactive) | > 100 µM (inactive) | > 100 µM (inactive) | > 100 µM (inactive) | > 100 µM (inactive) | > 100 µM (inactive) | > 100 µM (inactive) | > 100 µM (inactive) | > 100 µM (inactive)
2 | CC1=NN(c2nc(N)nc(C(C#N)C(=O)c3cc4c(cc3Cl)Sc3nccn3S4(=O)=O)n2)C(C)(C)C1 (stereo not given) | 13.5 µM (inactive) | 52.1 µM (inactive) | 6.84 µM (inactive) | 16.9 µM (inactive) | 6.44 | 10.3 µM (inactive) | 20.8 µM (inactive) | 17.7 µM (inactive) | 34.5 µM (inactive) | 22.8 µM (inactive) | 16.5 µM (inactive) | > 100 µM (inactive) | 10.1 µM (inactive) | 29.2 µM (inactive) | 14.9 µM (inactive) | 13.6 µM (inactive) | 37.7 µM (inactive) | 20.2 µM (inactive) | 20.5 µM (inactive) | 19.2 µM (inactive)
3 | COc1cc(S(=O)(=O)Nc2ccc(-c3csc(N4C(=O)CSC4c4ccccc4)n3)cc2)ccc1Cl (stereo not given) | 76.2 µM (inactive) | 0.116 µM (active) | 34.2 µM (inactive) | 20.6 µM (inactive) | > 100 | 20.8 µM (inactive) | 51.4 µM (inactive) | 30.5 µM (inactive) | 43.8 µM (inactive) | 43.1 µM (inactive) | 94.4 µM (inactive) | > 100 µM (inactive) | 29.9 µM (inactive) | 41.3 µM (inactive) | 24.4 µM (inactive) | 33.7 µM (inactive) | 80.7 µM (inactive) | 37.2 µM (inactive) | 42.4 µM (inactive) | 40.9 µM (inactive)
4 | O=c1c2cc(S(=O)(=O)O)ccc2nc(COc2ccc(Oc3ccc(Cl)cc3Cl)cc2)n1-c1ccc(Cl)cc1Oc1c(Cl)cccc1Cl | 24.7 µM (inactive) | 25.3 µM (inactive) | 30.9 µM (inactive) | 15.6 µM (inactive) | 21 | 47.1 µM (inactive) | 33 µM (inactive) | 17.5 µM (inactive) | 21.9 µM (inactive) | 25.6 µM (inactive) | 20.6 µM (inactive) | 23.9 µM (inactive) | 29.4 µM (inactive) | 36.4 µM (inactive) | 21.2 µM (inactive) | 15.3 µM (inactive) | 16.5 µM (inactive) | 18.6 µM (inactive) | 23.3 µM (inactive) | 30.5 µM (inactive)
5 | N#CC1(O)CCCCCCCCCCC1 | > 100 µM (inactive) | > 100 µM (inactive) | > 100 µM (inactive) | > 100 µM (inactive) | > 100 | > 100 µM (inactive) | > 100 µM (inactive) | > 100 µM (inactive) | > 100 µM (inactive) | > 100 µM (inactive) | > 100 µM (inactive) | > 100 µM (inactive) | > 100 µM (inactive) | > 100 µM (inactive) | > 100 µM (inactive) | > 100 µM (inactive) | > 100 µM (inactive) | > 100 µM (inactive) | > 100 µM (inactive) | > 100 µM (inactive)
6 | CC(C)NC(=O)OCc1c(COC(=O)NC(C)C)c(-c2cc[n+](COC(=O)C3CC3)cc2)n2c1CCC2 | > 100 µM (inactive) | 79.3 µM (inactive) | > 100 µM (inactive) | > 100 µM (inactive) | > 100 | 86.7 µM (inactive) | > 100 µM (inactive) | > 100 µM (inactive) | > 100 µM (inactive) | > 100 µM (inactive) | > 100 µM (inactive) | > 100 µM (inactive) | > 100 µM (inactive) | > 100 µM (inactive) | > 100 µM (inactive) | > 100 µM (inactive) | 42.2 µM (inactive) | > 100 µM (inactive) | > 100 µM (inactive) | > 100 µM (inactive)
7 | Cc1cc2c(cc1Cl)SC(c1ccccc1)C(=O)NS2(=O)=O (stereo not given) | 31.6 µM (inactive) | 26.9 µM (inactive) | 47.4 µM (inactive) | 70.1 µM (inactive) | 25 | 29.3 µM (inactive) | 40.8 µM (inactive) | 31.6 µM (inactive) | 39 µM (inactive) | 35.1 µM (inactive) | 36.3 µM (inactive) | 29.5 µM (inactive) | 35.4 µM (inactive) | 26.4 µM (inactive) | 34 µM (inactive) | 33.3 µM (inactive) | 26.7 µM (inactive) | 17.3 µM (inactive) | 40 µM (inactive) | 28.2 µM (inactive)
8 | C/C(=N/NC(=S)N1CCN(C(=S)N/N=C(/C)c2ccccn2)CC1)c1ccccn1 | 6.87 µM (inactive) | 8.81 µM (inactive) | 0.682 µM (active) | 15.6 µM (inactive) | 2.15 | 0.352 µM (active) | 17.7 µM (inactive) | 5.94 µM (inactive) | 4.47 µM (inactive) | 28 µM (inactive) | 6.89 µM (inactive) | 4.16 µM (inactive) | 8.2 µM (inactive) | 14.3 µM (inactive) | 12.1 µM (inactive) | 3.03 µM (inactive) | 6.4 µM (inactive) | > 100 µM (inactive) | 7 µM (inactive) | 16.3 µM (inactive)
9 | O=C(O)c1ccccc1CC(Cc1ccc2c(c1)CCC2)C(=O)O (stereo not given) | > 100 µM (inactive) | > 100 µM (inactive) | > 100 µM (inactive) | > 100 µM (inactive) | > 100 | > 100 µM (inactive) | > 100 µM (inactive) | > 100 µM (inactive) | > 100 µM (inactive) | > 100 µM (inactive) | > 100 µM (inactive) | > 100 µM (inactive) | > 100 µM (inactive) | > 100 µM (inactive) | > 100 µM (inactive) | > 100 µM (inactive) | > 100 µM (inactive) | > 100 µM (inactive) | > 100 µM (inactive) | > 100 µM (inactive)
10 | COc1ccc2nc3ccc(OC)cc3c(SCc3ccccc3)c2c1 | 76 µM (inactive) | > 100 µM (inactive) | > 52.7 µM (inactive) | > 100 µM (inactive) | > 95.5 | > 100 µM (inactive) | > 63.1 µM (inactive) | > 83.4 µM (inactive) | > 33.1 µM (inactive) | > 76.9 µM (inactive) | > 100 µM (inactive) | > 100 µM (inactive) | > 100 µM (inactive) | > 100 µM (inactive) | 48.8 µM (inactive) | > 100 µM (inactive) | > 89.3 µM (inactive) | > 100 µM (inactive) | > 74.3 µM (inactive) | > 92.5 µM (inactive)
11 | O=C(O)C1C(C(=O)Nc2ccc3c(c2)Cc2ccccc2-3)C2(Cl)C(Cl)=C(Cl)C1(Cl)C2(Cl)Cl (stereo not given) | 30.3 µM (inactive) | 19.4 µM (inactive) | 18.7 µM (inactive) | 34.4 µM (inactive) | 21.5 | 26.6 µM (inactive) | 20 µM (inactive) | 18.4 µM (inactive) | 20.4 µM (inactive) | 29.1 µM (inactive) | 29 µM (inactive) | 36.6 µM (inactive) | 27.7 µM (inactive) | 15.6 µM (inactive) | 14.6 µM (inactive) | 26.2 µM (inactive) | 13.2 µM (inactive) | 19.1 µM (inactive) | 25.6 µM (inactive) | 20.6 µM (inactive)
12 | N=C(N)NCCN1CCCCCc2ccccc21 | > 10 µM (inactive) | > 10 µM (inactive) | > 10 µM (inactive) | > 10 µM (inactive) | > 10 | > 10 µM (inactive) | > 10 µM (inactive) | > 10 µM (inactive) | > 10 µM (inactive) | > 10 µM (inactive) | > 10 µM (inactive) | > 10 µM (inactive) | > 10 µM (inactive) | 7.26 µM (inactive) | > 10 µM (inactive) | 3.27 µM (inactive) | > 10 µM (inactive) | > 10 µM (inactive) | > 10 µM (inactive) | > 10 µM (inactive)
13 | Brc1cccc(Nc2nc(-c3cccs3)nc3ccc(Br)cc23)c1 | 28.2 µM (inactive) | 31.7 µM (inactive) | 1.51 µM (inactive) | 15 µM (inactive) | 26.5 | 1.28 µM (inactive) | 26.7 µM (inactive) | 31.3 µM (inactive) | 25.5 µM (inactive) | 16.6 µM (inactive) | 31.4 µM (inactive) | 30.7 µM (inactive) | 27.8 µM (inactive) | 31.9 µM (inactive) | 44.9 µM (inactive) | 26.3 µM (inactive) | 31.8 µM (inactive) | 32.1 µM (inactive) | 26.9 µM (inactive) | 26.6 µM (inactive)
14 | Cc1ccc(N2C(N)=C(C#N)C(C#N)(C#N)C2c2ccccc2)cc1 (stereo not given) | 14.2 µM (inactive) | 17 µM (inactive) | 3 µM (inactive) | 18 µM (inactive) | 6.71 | 2.75 µM (inactive) | 6.67 µM (inactive) | 11.5 µM (inactive) | 12.3 µM (inactive) | 4.03 µM (inactive) | 19.5 µM (inactive) | 17 µM (inactive) | 13.4 µM (inactive) | 18.8 µM (inactive) | 11.4 µM (inactive) | 24.9 µM (inactive) | 14.2 µM (inactive) | 13.6 µM (inactive) | 4.32 µM (inactive) | 15.6 µM (inactive)
